Assay results as given in the NIST ThermoML archive (doi:10.1007/s10765-006-0056-z).

Experiment: molar heat capacity at constant volume; xn = mol fraction of the nth substance listed
Conditions: x1 = 0.095

CCCCCCCCCC [decane] + O=C=O
Conditions | molar heat capacity at constant volume [J/K/mol]
339.76 K, Fluid (supercritical or subcritical phases), Mass density=658.8 kg/m3, Isochoric Heat Capacity Apparatus | 341.25
339.76 K, Liquid, iso | 405.37
339.81 K, Fluid (supercritical or subcritical phases), Mass density=658.8 kg/m3, Isochoric Heat Capacity Apparatus | 339.06
340.21 K, Fluid (supercritical or subcritical phases), Mass density=658.8 kg/m3, Isochoric Heat Capacity Apparatus | 339.7
340.44 K, Fluid (supercritical or subcritical phases), Mass density=658.8 kg/m3, Isochoric Heat Capacity Apparatus | 339.06
341.36 K, Fluid (supercritical or subcritical phases), Mass density=658.8 kg/m3, Isochoric Heat Capacity Apparatus | 337.04
342.32 K, Fluid (supercritical or subcritical phases), Mass density=658.8 kg/m3, Isochoric Heat Capacity Apparatus | 337.68
348.73 K, Fluid (supercritical or subcritical phases), Mass density=658.8 kg/m3, Isochoric Heat Capacity Apparatus | 325.41
352.09 K, Fluid (supercritical or subcritical phases), Mass density=622.7 kg/m3, Isochoric Heat Capacity Apparatus | 341.73
352.09 K, Liquid, iso | 393.1
352.5 K, Fluid (supercritical or subcritical phases), Mass density=622.7 kg/m3, Isochoric Heat Capacity Apparatus | 340.82
352.9 K, Fluid (supercritical or subcritical phases), Mass density=622.7 kg/m3, Isochoric Heat Capacity Apparatus | 339.06
354.63 K, Fluid (supercritical or subcritical phases), Mass density=622.7 kg/m3, Isochoric Heat Capacity Apparatus | 337.04
362.18 K, Fluid (supercritical or subcritical phases), Mass density=658.8 kg/m3, Isochoric Heat Capacity Apparatus | 313.14
364 K, Fluid (supercritical or subcritical phases), Mass density=622.7 kg/m3, Isochoric Heat Capacity Apparatus | 323.65
368.53 K, Fluid (supercritical or subcritical phases), Mass density=574.1 kg/m3, Isochoric Heat Capacity Apparatus | 365.42
368.53 K, Liquid, iso | 393.1
368.83 K, Fluid (supercritical or subcritical phases), Mass density=574.1 kg/m3, Isochoric Heat Capacity Apparatus | 364.08
369.77 K, Fluid (supercritical or subcritical phases), Mass density=574.1 kg/m3, Isochoric Heat Capacity Apparatus | 359.39
371.23 K, Fluid (supercritical or subcritical phases), Mass density=658.8 kg/m3, Isochoric Heat Capacity Apparatus | 303.75
380.81 K, Fluid (supercritical or subcritical phases), Mass density=622.7 kg/m3, Isochoric Heat Capacity Apparatus | 305.78
383.81 K, Fluid (supercritical or subcritical phases), Mass density=534.8 kg/m3, Isochoric Heat Capacity Apparatus | 350.91
384.11 K, Fluid (supercritical or subcritical phases), Mass density=534.8 kg/m3, Isochoric Heat Capacity Apparatus | 347.55
385.02 K, Fluid (supercritical or subcritical phases), Mass density=574.1 kg/m3, Isochoric Heat Capacity Apparatus | 318.95
385.79 K, Fluid (supercritical or subcritical phases), Mass density=534.8 kg/m3, Isochoric Heat Capacity Apparatus | 348.67
387.65 K, Fluid (supercritical or subcritical phases), Mass density=534.8 kg/m3, Isochoric Heat Capacity Apparatus | 339.49
393.22 K, Fluid (supercritical or subcritical phases), Mass density=509.4 kg/m3, Isochoric Heat Capacity Apparatus | 349.31
393.66 K, Fluid (supercritical or subcritical phases), Mass density=622.7 kg/m3, Isochoric Heat Capacity Apparatus | 307.11
394.42 K, Fluid (supercritical or subcritical phases), Mass density=509.4 kg/m3, Isochoric Heat Capacity Apparatus | 339.06
395.94 K, Fluid (supercritical or subcritical phases), Mass density=509.4 kg/m3, Isochoric Heat Capacity Apparatus | 340.82
397.67 K, Fluid (supercritical or subcritical phases), Mass density=498 kg/m3, Isochoric Heat Capacity Apparatus | 351.12
397.78 K, Fluid (supercritical or subcritical phases), Mass density=574.1 kg/m3, Isochoric Heat Capacity Apparatus | 312.23
398.32 K, Fluid (supercritical or subcritical phases), Mass density=498 kg/m3, Isochoric Heat Capacity Apparatus | 353.09
399.4 K, Fluid (supercritical or subcritical phases), Mass density=498 kg/m3, Isochoric Heat Capacity Apparatus | 343.97
401.33 K, Fluid (supercritical or subcritical phases), Mass density=534.8 kg/m3, Isochoric Heat Capacity Apparatus | 323.65
403.37 K, Fluid (supercritical or subcritical phases), Mass density=574.1 kg/m3, Isochoric Heat Capacity Apparatus | 314.26
404.76 K, Fluid (supercritical or subcritical phases), Mass density=509.4 kg/m3, Isochoric Heat Capacity Apparatus | 325.19
404.98 K, Fluid (supercritical or subcritical phases), Mass density=477.6 kg/m3, Isochoric Heat Capacity Apparatus | 347.33
405.41 K, Fluid (supercritical or subcritical phases), Mass density=477.6 kg/m3, Isochoric Heat Capacity Apparatus | 344.18
406.9 K, Fluid (supercritical or subcritical phases), Mass density=534.8 kg/m3, Isochoric Heat Capacity Apparatus | 319.59
407.33 K, Fluid (supercritical or subcritical phases), Mass density=477.6 kg/m3, Isochoric Heat Capacity Apparatus | 339.28
410.31 K, Fluid (supercritical or subcritical phases), Mass density=509.4 kg/m3, Isochoric Heat Capacity Apparatus | 327.43
410.94 K, Fluid (supercritical or subcritical phases), Mass density=498 kg/m3, Isochoric Heat Capacity Apparatus | 327.01
411.47 K, Fluid (supercritical or subcritical phases), Mass density=574.1 kg/m3, Isochoric Heat Capacity Apparatus | 311.32
416.01 K, Fluid (supercritical or subcritical phases), Mass density=477.6 kg/m3, Isochoric Heat Capacity Apparatus | 330.31
416.64 K, Fluid (supercritical or subcritical phases), Mass density=509.4 kg/m3, Isochoric Heat Capacity Apparatus | 321.62
422.51 K, Fluid (supercritical or subcritical phases), Mass density=498 kg/m3, Isochoric Heat Capacity Apparatus | 321.62
423.55 K, Fluid (supercritical or subcritical phases), Mass density=509.4 kg/m3, Isochoric Heat Capacity Apparatus | 319.59
428.94 K, Fluid (supercritical or subcritical phases), Mass density=477.6 kg/m3, Isochoric Heat Capacity Apparatus | 321.41
432.24 K, Fluid (supercritical or subcritical phases), Mass density=509.4 kg/m3, Isochoric Heat Capacity Apparatus | 320.07
434.61 K, Fluid (supercritical or subcritical phases), Mass density=398.3 kg/m3, Isochoric Heat Capacity Apparatus | 344.61
434.91 K, Fluid (supercritical or subcritical phases), Mass density=398.3 kg/m3, Isochoric Heat Capacity Apparatus | 342.64
436.96 K, Fluid (supercritical or subcritical phases), Mass density=398.3 kg/m3, Isochoric Heat Capacity Apparatus | 343.06
437.68 K, Fluid (supercritical or subcritical phases), Mass density=498 kg/m3, Isochoric Heat Capacity Apparatus | 321.19
438.19 K, Fluid (supercritical or subcritical phases), Mass density=509.4 kg/m3, Isochoric Heat Capacity Apparatus | 318.05
440.43 K, Fluid (supercritical or subcritical phases), Mass density=534.8 kg/m3, Isochoric Heat Capacity Apparatus | 316.28
442.03 K, Fluid (supercritical or subcritical phases), Mass density=534.8 kg/m3, Isochoric Heat Capacity Apparatus | 316.5
442.05 K, Fluid (supercritical or subcritical phases), Mass density=498 kg/m3, Isochoric Heat Capacity Apparatus | 321.19
442.66 K, Fluid (supercritical or subcritical phases), Mass density=477.6 kg/m3, Isochoric Heat Capacity Apparatus | 322.31
442.88 K, Fluid (supercritical or subcritical phases), Mass density=498 kg/m3, Isochoric Heat Capacity Apparatus | 321.19
